# Tests used:
# [1] = target: T1, α1b-AR (Homo sapiens, UniProt P35368); assay: α1-Adrenergic Receptor Binding Assay (125I-HEAT radio-ligand), α1b subtype; details: membranes of COS-7 cells transfected with α1b subtype; 125I-HEAT 50 pM; rt 1 hr
# T1 construct: expressed in transfected cells; host or cells: COS-7 cells (membranes)
# T1 sequence (P35368 1-520): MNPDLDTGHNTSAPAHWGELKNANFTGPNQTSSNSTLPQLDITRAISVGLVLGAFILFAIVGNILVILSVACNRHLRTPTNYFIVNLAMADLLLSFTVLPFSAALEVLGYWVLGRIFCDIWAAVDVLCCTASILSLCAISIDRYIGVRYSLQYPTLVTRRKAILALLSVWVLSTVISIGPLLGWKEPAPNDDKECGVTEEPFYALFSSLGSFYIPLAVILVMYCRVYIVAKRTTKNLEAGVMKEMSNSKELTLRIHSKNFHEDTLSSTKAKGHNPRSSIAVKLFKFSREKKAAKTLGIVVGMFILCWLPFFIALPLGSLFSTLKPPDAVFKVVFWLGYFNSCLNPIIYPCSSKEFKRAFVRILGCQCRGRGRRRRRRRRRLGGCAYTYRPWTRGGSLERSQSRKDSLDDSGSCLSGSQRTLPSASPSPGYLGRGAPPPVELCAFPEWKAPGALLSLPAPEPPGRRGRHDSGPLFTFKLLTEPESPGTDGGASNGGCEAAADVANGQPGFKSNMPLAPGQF
# Method: (§1) α1-Adrenergic Receptor Binding Assay
# (§2) Preparation of COS Cell Membranes
# (§3) Membranes were prepared from COS-7 cells (African Green monkey kidney SV40-transformed cells) that had been transfected with one of the three α1-AR subtypes (Genbank accession number for the α1a subtype: AF013261; Genbank accession number for the α1b subtype: NM000679; Genbank accession number for the α1d subtype: NM000678) using the following method: COS cells from ten 100 mm tissue culture plates were scraped into a 5 mL volume of TE (a mixture of 50 mM Tris-HCl, 5 mM EDTA, pH 7.4). […] The disrupted cells were centrifuged at 1000×g min at 4° C. Supernatants were centrifuged at 34,500×g for 20 min at 4° C. The membrane pellets were suspended in a 2 mL volume of TNE (a mixture of 50 mM Tris-HCl, 5 mM EDTA and 150 mM NaCl at pH 7.4). An aliquot of the membrane suspension was stored at −70° C. until use. The protein concentration was determined using the BioRad “DC” protein assay kit following membrane solubilization with Triton X-100.
# (§4) Radio-Ligand Binding Assay
# (§5) Triplicate determinations of radio-ligand binding in the presence of increasing concentrations of testing compound were made. The reagents were added to 96-well polypropylene plate wells. […] The plate was incubated at rt for 1 hr. The contents of the wells were filtered through a glass filter (type C) (GF/C) membrane Unifilter plate (Packard Instruments) using the Packard Filtermate cell harvester. The filter plates were dried in a vacuum oven for 30 min at 40° C. 25 μL Microscint 20 liquid scintillation fluid (Packard Instruments) was added to each well. The radioactive content was analyzed in the TopCount microplate scintillation counter (Packard Instruments).
# [2] = target: T2, α1a-AR (Homo sapiens, UniProt P35348); assay: α1-Adrenergic Receptor Binding Assay (125I-HEAT radio-ligand), α1a subtype; details: membranes of COS-7 cells transfected with α1a subtype; 125I-HEAT 50 pM; rt 1 hr
# T2 construct: expressed in transfected cells; host or cells: COS-7 cells (membranes)
# T2 sequence (P35348 1-455 isoform P35348-4): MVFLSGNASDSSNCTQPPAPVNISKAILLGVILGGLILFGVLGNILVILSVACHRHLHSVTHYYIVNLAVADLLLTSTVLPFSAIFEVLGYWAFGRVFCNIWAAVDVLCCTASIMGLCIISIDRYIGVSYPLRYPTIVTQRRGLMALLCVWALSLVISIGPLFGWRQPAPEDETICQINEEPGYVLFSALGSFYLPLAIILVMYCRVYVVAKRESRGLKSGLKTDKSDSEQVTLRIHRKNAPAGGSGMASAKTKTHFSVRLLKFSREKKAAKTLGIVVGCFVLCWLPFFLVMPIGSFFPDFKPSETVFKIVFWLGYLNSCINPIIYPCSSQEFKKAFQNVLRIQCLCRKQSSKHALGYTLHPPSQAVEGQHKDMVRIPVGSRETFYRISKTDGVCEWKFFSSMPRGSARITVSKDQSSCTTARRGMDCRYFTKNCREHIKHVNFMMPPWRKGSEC
# Method: as §1, §2, §3, §4, §5
# [3] = target: T3, α1d-AR (Homo sapiens, UniProt P25100); assay: α1-Adrenergic Receptor Binding Assay (125I-HEAT radio-ligand), α1d subtype; details: membranes of COS-7 cells transfected with α1d subtype; 125I-HEAT 50 pM; rt 1 hr
# T3 construct: expressed in transfected cells; host or cells: COS-7 cells (membranes)
# T3 sequence (P25100 1-572): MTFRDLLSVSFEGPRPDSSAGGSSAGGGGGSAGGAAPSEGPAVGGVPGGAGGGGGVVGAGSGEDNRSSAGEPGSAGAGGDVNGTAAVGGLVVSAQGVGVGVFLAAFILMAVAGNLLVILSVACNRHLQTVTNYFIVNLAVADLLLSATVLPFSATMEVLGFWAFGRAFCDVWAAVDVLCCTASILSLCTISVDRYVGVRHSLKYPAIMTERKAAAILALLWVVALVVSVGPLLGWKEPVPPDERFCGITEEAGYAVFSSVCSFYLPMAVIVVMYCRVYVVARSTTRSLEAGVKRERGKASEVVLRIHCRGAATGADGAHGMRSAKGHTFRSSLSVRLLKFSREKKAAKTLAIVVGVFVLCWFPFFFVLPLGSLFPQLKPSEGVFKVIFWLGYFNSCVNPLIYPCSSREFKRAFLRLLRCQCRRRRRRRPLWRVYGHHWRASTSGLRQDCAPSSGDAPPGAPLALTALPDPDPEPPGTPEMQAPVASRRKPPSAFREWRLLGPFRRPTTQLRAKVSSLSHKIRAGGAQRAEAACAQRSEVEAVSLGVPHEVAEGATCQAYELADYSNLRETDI
# Method: as §1, §2, §3, §4, §5
Ki [1],Ki [2],Ki [3],SMILES
69.6 nM,10.8 nM,15.3 nM,"CC(C)Oc1ccccc1N1CCN([C@H]2CC[C@H](NC(=O)NCc3cccc(F)c3)CC2)CC1 [Cpd 6, 1-(3-fluoro-benzyl)-r-3-{t-4-[4-(2-isopropoxy-phenyl)-piperazin-1-yl]-cyclohexyl}-urea]"
–,74 nM,20 nM,"COc1ccc(NC(=O)N[C@H]2CC[C@H](N3CCN(c4ccccc4OC(C)C)CC3)CC2)c(OC)c1 [Cpd 4, 1-(2,4-dimethoxy-phenyl)-r-3-{t-4-[4-(2-isopropoxy-phenyl)-piperazin-1-yl]-cyclohexyl}-urea]"
1050 nM,108 nM,44 nM,"CC(C)Oc1ccccc1N1CCN([C@H]2CC[C@@H](NC(=O)Nc3cc(F)cc(F)c3)CC2)CC1 [Cpd 28, 1-(3,5-difluoro-phenyl)-r-3-{c-4-[4-(2-isopropoxy-phenyl)-piperazin-1-yl]-cyclohexyl}-urea]"
52 nM,5.7 nM,1 nM,"CC(C)Oc1ccccc1N1CCN([C@H]2CC[C@H](NC(=O)Nc3cc(F)cc(F)c3)CC2)CC1 [Cpd 29, 1-(3,5-difluoro-phenyl)-r-3-{t-4-[4-(2-isopropoxy-phenyl)-piperazin-1-yl]-cyclohexyl}-urea]"
168 nM,37 nM,6.5 nM,"COc1ccc(C)cc1NC(=O)N[C@H]1CC[C@@H](N2CCN(c3ccccc3OC(C)C)CC2)CC1 [Cpd 33, r-1-{c-4-[4-(2-isopropoxy-phenyl)-piperazin-1-yl]-cyclohexyl}-3-(2-methoxy-5-methyl-phenyl)-urea]"
–,33.4 nM,–,"CC(C)Oc1ccccc1N1CCN([C@H]2CC[C@@H](NC(=O)Nc3c(Cl)cccc3Cl)CC2)CC1 [Cpd 13, 1-(2,6-dichloro-phenyl)-r-3-{c-4-[4-(2-isopropoxy-phenyl)-piperazin-1-yl]-cyclohexyl}-urea]"
475 nM,14 nM,–,"CC(C)Oc1ccccc1N1CCN([C@H]2CC[C@@H](NC(=O)Nc3ccc(F)cc3F)CC2)CC1 [Cpd 22, 1-(2,4-difluoro-phenyl)-r-3-{c-4-[4-(2-isopropoxy-phenyl)-piperazin-1-yl]-cyclohexyl}-urea]"
112 nM,6.4 nM,3.6 nM,"CC(C)Oc1ccccc1N1CCN([C@H]2CC[C@H](NC(=O)Nc3c(Cl)cc(Cl)cc3Cl)CC2)CC1 [Cpd 16, r-1-{t-4-[4-(2-isopropoxy-phenyl)-piperazin-1-yl]-cyclohexyl}-3-(2,4,6-trichloro-phenyl)-urea]"
299 nM,51.6 nM,–,"CC(C)Oc1ccccc1N1CCN([C@H]2CC[C@@H](NC(=O)Nc3c(F)cccc3F)CC2)CC1 [Cpd 26, 1-(2,6-difluoro-phenyl)-r-3-{c-4-[4-(2-isopropoxy-phenyl)-piperazin-1-yl]-cyclohexyl}-urea]"
107 nM,38 nM,–,"COc1ccccc1NC(=O)N[C@H]1CC[C@H](N2CCN(c3ccccc3OC(C)C)CC2)CC1 [Cpd 2, 1-{t-4-[4-(2-isopropoxy-phenyl)-piperazin-1-yl]-cyclohexyl}-r-3-(2-methoxy-phenyl)-urea]"
–,5.1 nM,–,"CC(C)Oc1ccccc1N1CCN([C@H]2CC[C@H](NC(=O)Nc3cccc(Cl)c3)CC2)CC1 [Cpd 12, 1-(3-chloro-phenyl)-r-3-{t-4-[4-(2-isopropoxy-phenyl)-piperazin-1-yl]-cyclohexyl}-urea]"
223 nM,155 nM,–,"COc1ccccc1NC(=O)N[C@H]1CC[C@@H](N2CCN(c3ccccc3OC(C)C)CC2)CC1 [Cpd 1, 1-{c-4-[4-(2-isopropoxy-phenyl)-piperazin-1-yl]-cyclohexyl}-r-3-(2-methoxy-phenyl)-urea]"
–,34 nM,2.7 nM,"COc1ccc(Cl)cc1NC(=O)N[C@H]1CC[C@H](N2CCN(c3ccccc3OC(C)C)CC2)CC1 [Cpd 19, 1-(5-chloro-2-methoxy-phenyl)-r-3-{t-4-[4-(2-isopropoxy-phenyl)-piperazin-1-yl]-cyclohexyl}-urea]"
76 nM,3.1 nM,–,"CC(C)Oc1ccccc1N1CCN([C@H]2CC[C@H](NC(=O)Nc3ccc(F)cc3F)CC2)CC1 [Cpd 23, 1-(2,4-difluoro-phenyl)-r-3-{t-4-[4-(2-isopropoxy-phenyl)-piperazin-1-yl]-cyclohexyl}-urea]"
35.6 nM,5.3 nM,–,"CC(C)Oc1ccccc1N1CCN([C@H]2CC[C@H](NC(=O)Nc3c(F)cccc3F)CC2)CC1 [Cpd 27, 1-(2,6-difluoro-phenyl)-r-3-{t-4-[4-(2-isopropoxy-phenyl)-piperazin-1-yl]-cyclohexyl}-urea]"
–,101 nM,64 nM,"COc1ccc(Cl)cc1NC(=O)N[C@H]1CC[C@@H](N2CCN(c3ccccc3OC(C)C)CC2)CC1 [Cpd 18, 1-(5-chloro-2-methoxy-phenyl)-r-3-{c-4-[4-(2-isopropoxy-phenyl)-piperazin-1-yl]-cyclohexyl}-urea]"
–,22.2 nM,–,"CC(C)Oc1ccccc1N1CCN([C@H]2CC[C@@H](NC(=O)Nc3cccc(Cl)c3)CC2)CC1 [Cpd 11, 1-(3-chloro-phenyl)-r-3-{c-4-[4-(2-isopropoxy-phenyl)-piperazin-1-yl]-cyclohexyl}-urea]"
74 nM,3 nM,–,"CC(C)Oc1ccccc1N1CCN([C@H]2CC[C@H](NC(=O)Nc3ccc(F)c(F)c3)CC2)CC1 [Cpd 8, 1-(3,4-difluoro-phenyl)-r-3-{t-4-[4-(2-isopropoxy-phenyl)-piperazin-1-yl]-cyclohexyl}-urea]"
–,6.2 nM,–,"CC(C)Oc1ccccc1N1CCN([C@H]2CC[C@H](NC(=O)Nc3c(Cl)cccc3Cl)CC2)CC1 [Cpd 14, 1-(2,6-dichloro-phenyl)-r-3-{t-4-[4-(2-isopropoxy-phenyl)-piperazin-1-yl]-cyclohexyl}-urea]"
963 nM,50.6 nM,–,"CC(C)Oc1ccccc1N1CCN([C@H]2CC[C@@H](NC(=O)Nc3ccc(F)c(F)c3)CC2)CC1 [Cpd 7, 1-(3,4-difluoro-phenyl)-r-3-{c-4-[4-(2-isopropoxy-phenyl)-piperazin-1-yl]-cyclohexyl}-urea]"
–,110 nM,92 nM,"COc1ccc(NC(=O)N[C@H]2CC[C@@H](N3CCN(c4ccccc4OC(C)C)CC3)CC2)c(OC)c1 [Cpd 3, 1-(2,4-dimethoxy-phenyl)-r-3-{c-4-[4-(2-isopropoxy-phenyl)-piperazin-1-yl]-cyclohexyl}-urea]"

# — patent US7517885B2, “Substituted [4-(4-phenyl-piperazin-1-yl)-cyclohexyl]-urea compounds” (Janssen Pharmaceutica N.V., priority 2005, dated 2009)
